Source: patent US6455495B1, “Methods and compositions for delivery of therapeutic agents to bone tissue employing conjugates of negatively charged peptide oligomers with therapeutic agents” (The Salk Institute for Biological Studies, priority 1997, dated 2002)

Columns and labels:
[1] = R. Fujisawa et al. 1996, cited from earlier work
streptavidin = streptavidin (Streptomyces avidinii, UniProt P22629); test: Recruitment of 125I-labeled streptavidin to hydroxyapatite; assay type: binding; details: 1 nmole peptide on 1 mg hydroxyapatite; 0.1 nmole 125I-streptavidin, 1 M KCl, 0.01 M phosphate pH 6.5, 45 minutes
Protocol: The supernatant was removed by centrifugation, and the conjugate treated hydroxyapatite washed several times with 200 μl of H2O. The amounts of radioactivity found in the supernatant, wash and conjugate treated hydroxyapatite were then measured. In control experiments, biotin-glu10 was replaced by glu10. When a peptide bound to the hydroxyapatite was ligated to biotin about 70% of the streptavidin was recruited to the hydroxyapatite and 25-30% remained in the supernatant. In the control experiment, no more than 5% of the streptavidin was bound to the hydroxyapatite.

dihydrofolate reductase = details: 1 nmole peptide adsorbed on 1 mg hydroxyapatite; 0.52 nmole DHFR, pH 6.4, shaken 45 minutes; SDS gel, Coumassie Blue
Protocol: The supernatant was removed by centrifugation and the hydroxyapatite was washed with 100 μl of water. Dihydrofolate reductase (0.52 nmole) in 200 μl of buffer containing 0.1 M ammonium sulfate, 0.01 M potassium phosphate, at pH 6.4 and 5% glycerol was added to the hydroxyapatite and shaken for 45 minutes. The hydroxyapatite was separated from the supernatant, washed with 100 μl of water and then eluted twice with 20 μl of 0.02 M K4P2O7. […] The supernatant, the washes and the pyrophosphate eluate were analyzed on a 6% arylamide SDS gel using Coumassie Blue to visualize dihydrofolate reductase.

Chain of streptavidin (P22629 25-183): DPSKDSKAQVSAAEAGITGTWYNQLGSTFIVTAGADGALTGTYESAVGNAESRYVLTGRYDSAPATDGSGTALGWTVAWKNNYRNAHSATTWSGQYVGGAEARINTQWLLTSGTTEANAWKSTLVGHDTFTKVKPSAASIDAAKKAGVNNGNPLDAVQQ

Substance	adsorption onto hydroxyapatite [1]	streptavidin recruited (bound) to the hydroxyapatite (streptavidin)	dihydrofolate reductase found in the pyrophosphate eluate (dihydrofolate reductase)	effect on mineralization of hydroxyapatite ([1]; in the presence of calcium and phosphate)
Aspartic acid hexamer [Asp6]	significantly adsorb			
Glutamic acid decapeptide [glu10]		no more than 5%	only a small amount	
glutamic acid hexamer [Glu6]	significantly adsorb			affect the mineralization
